Reference: US7795315B2, “N-(2-amino-phenyl)-amide derivatives” (Hoffman-La Roche Inc., priority 2008, dated 2010)

What was measured:
Format in all cases: cell-based
[1] = tested on: klf2 promoter-luciferase construct in A204 cells; experiment: klf2 reporter gene induction (p21 versus klf2 selectivity); conditions: SNDX-275 p21/klf2 ratio defined as 1.0; for p21/klf2 (RP3): relative selectivity compared with SNDX-275: 3 micromolar; for p21/klf2 (RP10): relative selectivity compared with SNDX-275: 10 micromolar
Experimental: (§1) The novel compounds of the present invention were tested for their ability to induce p21 gene expression using a reporter gene assay involving HeLa cells transfected with a p21 promoter-luciferase construct. The p21 promoter contained the Sp1/Sp3 binding site for HDAC but not the upstream p53 binding site. Briefly, the day before transfection, HeLa cells were seeded at 11,000 cells/well in a 96-well culture plate and incubated at 37 degrees Celsius in 5% CO2 overnight. For transfection, the medium was removed and replaced with 100 microliters/well transfection media previously prepared as follows: 5 microliters serum-free DMEM, 0.15 microliters Fugene 6 reagent, 40 ng p21-luc, 10 ng GFP were mixed gently and incubated at room temperature for 30 minutes; then 98 microliters DMEM (with 10% FBS, 1% penicillin and streptomycin) was added to the DNA:Fugene 6 reagent complex and mixed gently. After incubating the cells for 24 hours at 37 degrees Celsius in 5% CO2, fresh media and test compounds were added to the wells and the cells further incubated for 15 hours at 37 degrees Celsius in 5% CO2. Cells were lysed by adding 80 microliters/well of a cell culture lysis reagent (Promega). 50 microliters of each lysate was taken for GFP detection using an excitation wavelength of 486 nm and detection at 527 nm. 100 microliters Luciferase assay reagent (Promega) was then added to every 20 microliters cell lysate for luminometer detection. […] Induction activity for specific representative compounds can be found in Table 4.
The novel compounds of the present invention were tested for their ability to induce klf2 gene expression using a reporter gene assay involving A204 cells transfected with a klf2 promoter-luciferase construct. The klf2 promoter contained the MEF2 binding site for HDAC3/class IIa HDAC complex. Briefly, the day before transfection, A204 cells were seeded at 11,000 cells/well in a 96-well culture plate and incubated at 37 degrees Celsius in 5% CO2 overnight. For transfection, the medium was removed and replaced with 100 microliters/well transfection media previously prepared as follows: 5 microliters serum-free DMEM, 0.15 microliters Fugene 6 reagent, 40 ng klf2-luc, 10 ng GFP were mixed gently and incubated at room temperature for 30 minutes; then 98 microliters DMEM (with 10% FBS, 1% penicillin and streptomycin) was added to the DNA:Fugene 6 reagent complex and mixed gently. After incubating the cells for 24 hours at 37 degrees Celsius in 5% CO2, fresh media and test compounds were added to the wells and the cells further incubated for 15 hours at 37 degrees Celsius in 5% CO2. Finally, 10 ng/ml TNF-α was added and the cells further incubated for 4 hours. Cells were lysed by adding 80 microliters/well of a cell culture lysis reagent (Promega). 50 microliters of each lysate was taken for GFP detection using an excitation wavelength of 486 nm and detection at 527 nm. 100 microliters Luciferase assay reagent (Promega) was then added to every 20 microliters cell lysate for luminometer detection.

[2] = tested on: p21 promoter-luciferase construct in HeLa cells; experiment: p21 reporter gene induction; conditions: 3 micromolar, 15 hours, relative to SNDX-275
Experimental: as §1

[3] = tested on: HCT-116 colon cancer cells; experiment: Antiproliferative activity, growth inhibition (MTS/WST assay); conditions: Homo sapiens, 72 hour growth inhibition, read-out: GI50 HCT116
Experimental: The novel compounds of the present invention were tested for their ability to inhibit growth of various cancer cell lines (HeLa, MCF7, U2OS, HepG2, HL60, HCT-116) using in vitro growth inhibition assays described below.
Cells were seeded in 96-well culture plates (200 microliters/well at different seeding concentrations depending on cell type) and incubated overnight at 37 degrees Celsius in 5% CO2. After adding compound dilutions to the cells (DMSO concentration kept below 0.5%), the cells were incubated at 37 degrees Celsius in 5% CO2 for 72 hours. The effects on proliferation were determined by addition of MTS reagent (Promega) according to the manufacturer's instruction, followed by incubation for 2 hours at 37 degrees Celsius in 5% CO2, and finally recording the absorbance at 490 nm using an ELISA plate reader.
Similar to MTS assay except that the developer is the CCK-8 reagent (Dojindo) and the plate reader is set to 450 nm absorbance.
GI50 values against HCT-116 colon cancer cells for specific representative compounds can be found in Table 4.

Row | SMILES | p21/klf2 (RP3): relative selectivity compared with SNDX-275 [1] | p21/klf2 (RP10): relative selectivity compared with SNDX-275 [1] | p21 (RP3): relative induction potency compared with SNDX-275 [2] | GI50 [3]
1 | Nc1ccccc1NC(=O)/C=C/c1ccc(C(NCCN2CCCCC2)C(=O)Nc2ccc(C(F)(F)F)cc2F)cc1 (stereo not drawn) [Example 4-35, (E)-N-(2-Amino-phenyl)-3-{4-[(2-fluoro-4-trifluoromethyl-phenylcarbamoyl)-(2-piperidin-1-yl-ethylamino)-methyl]-phenyl}-acrylamide] | 2.0 | 3.0 | 140% | 1300 nM
2 | Nc1ccccc1NC(=O)/C=C/c1ccc(C(OCCN2CCOCC2)C(=O)Nc2ccc(C(F)(F)F)cc2)cc1 (stereo not drawn) [Example 19, (E)-N-(2-Amino-phenyl)-3-{4-[(2-morpholin-4-yl-ethoxy)-(4-trifluoromethyl-phenylcarbamoyl)-methyl]-phenyl}-acrylamide] | 1.6 | 3.6 | 98% | 2200 nM
3 | CN(C)CCNC(C(=O)Nc1ccc(C(F)(F)F)cc1F)c1ccc(/C=C/C(=O)Nc2ccccc2N)cc1 (stereo not drawn) [Example 4-24, (E)-N-(2-Amino-phenyl)-3-{4-[(2-dimethylamino-ethylamino)-(2-fluoro-4-trifluoromethyl-phenylcarbamoyl)-methyl]-phenyl}-acrylamide] | 1.5 | 1.5 | 162% | 2100 nM
4 | CN(C)CCNC(C(=O)Nc1ccc(C(F)(F)F)cc1)c1ccc(/C=C/C(=O)Nc2ccccc2N)cc1 (stereo not drawn) [Example 4-1, (E)-N-(2-Amino-phenyl)-3-{4-[(2-dimethylamino-ethylamino)-(4-trifluoromethyl-phenylcarbamoyl)-methyl]-phenyl}-acrylamide] | 1.4 | 5.5 | 300% | 700 nM
5 | C[C@@H]1CN(CCNC(C(=O)Nc2ccc(C(F)(F)F)cc2)c2ccc(/C=C/C(=O)Nc3ccccc3N)cc2)C[C@H](C)O1 (stereo partly drawn) [Example 9-28, (E)-N-(2-Amino-phenyl)-3-{4-[[2-((2R,6S)-2,6-dimethyl-morpholin-4-yl)-ethylamino]-(4-trifluoromethyl-phenylcarbamoyl)-methyl]-phenyl}-acrylamide] | 0.5 | 0.9 | 33% | 1800 nM
6 | Nc1ccccc1NC(=O)/C=C/c1ccc(C(NCCN2CCOCC2)C(=O)Nc2ccc(OC(F)(F)F)cc2)cc1 (stereo not drawn) [Example 4-4, (E)-N-(2-Amino-phenyl)-3-{4-[(2-morpholin-4-yl-ethylamino)-(4-trifluoromethoxy-phenylcarbamoyl)-methyl]-phenyl}-acrylamide] | 1.2 | 3.1 | 125% | 1100 nM
